Assay [1] concerns the target T1, B-RAF^V600E (Homo sapiens, UniProt P15056, V600E).
T1 construct: purchased Reaction Biology Corporation (RBC), Kinase HotSpot service
Put plainly: HotSpot kinase assay (RBC), B-RAF^V600E. It counts as biochemical. To be noted: 10 µM ATP, 10-dose singlicate IC50 mode.

The target of assay [2] is T2, C-RAF (Homo sapiens, UniProt P04049). Put plainly: HotSpot kinase assay (RBC), C-RAF. To be noted: IC50 C-RAF, 10 µM ATP, 10-dose singlicate IC50 mode.
From the text: Reaction Biology Corporation (RBC) Kinase HotSpotSM service was utilized for cell-free biochemical kinase evaluation of the target compounds according to the reported assay protocol [46].
The next assay concerns EGFR. Also on record: method as in PMID 24588073. To be noted: cited from earlier work.
A further assay relates to RAF. Also on record: method as in PMID 28368067. To be noted: cited from earlier work.
Another assay relates to B-RAF. Details: method as in PMID 25461318. Conditions: cited from earlier work.
Assay [3] deals with T2, C-RAF. Conditions: at 10 µM; cited from earlier work.
Assay [4] concerns the target T1, B-RAF^V600E. To be noted: cited from earlier work.
In another assay the test system is Src. Also on record: method as in PMID 25835317. To be noted: cited from earlier work.
The test system of another assay is B-RAF^WT. Details: method as in PMID 25835317. Conditions: cited from earlier work.
In assay [5] the target is T1, B-RAF^V600E. Also on record: method as in PMID 24900673, PMID 33780623. To be noted: cited from earlier work.

Molecules are shown by their SMILES. Read-outs that look alike come from different tables or passages of the source.

T1 sequence (P15056 whole entry V600E): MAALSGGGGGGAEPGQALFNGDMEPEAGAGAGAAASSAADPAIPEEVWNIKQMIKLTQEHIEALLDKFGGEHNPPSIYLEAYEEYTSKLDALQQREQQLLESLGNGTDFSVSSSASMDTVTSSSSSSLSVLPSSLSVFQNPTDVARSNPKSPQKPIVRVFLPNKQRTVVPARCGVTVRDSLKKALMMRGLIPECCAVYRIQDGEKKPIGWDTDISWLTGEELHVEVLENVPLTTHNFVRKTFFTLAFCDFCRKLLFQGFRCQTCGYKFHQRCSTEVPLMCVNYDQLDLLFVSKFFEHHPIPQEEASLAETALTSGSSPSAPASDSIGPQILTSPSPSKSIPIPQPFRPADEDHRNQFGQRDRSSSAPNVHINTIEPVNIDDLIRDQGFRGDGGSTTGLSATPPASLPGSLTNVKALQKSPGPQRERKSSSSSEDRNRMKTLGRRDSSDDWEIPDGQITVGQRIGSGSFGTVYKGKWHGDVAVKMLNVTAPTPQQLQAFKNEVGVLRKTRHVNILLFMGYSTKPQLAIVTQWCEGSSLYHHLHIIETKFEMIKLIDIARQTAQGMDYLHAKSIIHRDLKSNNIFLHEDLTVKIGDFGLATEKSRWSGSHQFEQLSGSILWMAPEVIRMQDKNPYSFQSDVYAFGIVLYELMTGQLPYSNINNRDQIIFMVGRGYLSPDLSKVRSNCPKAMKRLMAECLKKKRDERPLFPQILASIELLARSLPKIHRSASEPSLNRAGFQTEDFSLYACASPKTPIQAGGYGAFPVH
T2 sequence (P04049 whole entry): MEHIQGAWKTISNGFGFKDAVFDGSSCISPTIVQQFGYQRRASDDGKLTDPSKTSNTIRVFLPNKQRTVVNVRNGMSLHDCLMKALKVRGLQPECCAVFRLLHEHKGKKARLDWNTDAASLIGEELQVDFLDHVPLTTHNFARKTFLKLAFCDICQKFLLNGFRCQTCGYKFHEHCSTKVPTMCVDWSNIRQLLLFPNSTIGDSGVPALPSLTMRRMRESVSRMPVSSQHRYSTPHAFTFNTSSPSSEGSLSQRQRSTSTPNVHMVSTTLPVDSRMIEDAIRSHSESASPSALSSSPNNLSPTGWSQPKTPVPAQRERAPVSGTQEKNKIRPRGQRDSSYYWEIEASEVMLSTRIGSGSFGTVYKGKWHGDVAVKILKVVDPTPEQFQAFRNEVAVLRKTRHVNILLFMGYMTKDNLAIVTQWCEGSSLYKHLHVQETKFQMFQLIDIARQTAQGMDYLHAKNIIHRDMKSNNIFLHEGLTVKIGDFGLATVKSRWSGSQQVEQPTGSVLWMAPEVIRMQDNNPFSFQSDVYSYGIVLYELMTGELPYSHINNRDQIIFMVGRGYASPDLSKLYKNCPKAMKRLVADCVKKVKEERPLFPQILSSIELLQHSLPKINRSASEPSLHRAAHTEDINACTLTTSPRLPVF

On to `COc1ccc2nc(Nc3cccc(NC(=O)c4ccc(CN5CCCN(C)CC5)c(C(F)(F)F)c4)c3)ccc2c1` [Compound 16b, N-(3-((6-methoxyquinolin-2-yl)amino)phenyl)-4-((4-methyl-1,4-diazepan-1-yl)methyl)-3-(trifluoromethyl)benzamide], for which the IC50 (usually the point on the concentration scale where inhibition reaches its midpoint) at B-RAF^V600E [1] turned out to be 308 ± 14.9 nM; against C-RAF [2], 164 ± 6.05 nM.
As for `Cc1ccc(C(=O)Nc2ccc(CN3CCN(C)CC3)c(C(F)(F)F)c2)cc1NC(=O)c1cnc2[nH]ccc2c1` [Compound IV], the IC50 with EGFR was 8 nM.
`Cc1ccc(C(=O)Nc2ccc(Cl)c(C(F)(F)F)c2)cc1NC(=O)C1(c2ccnc(NCCN3CCN(C)CC3)n2)CC1` [III]: the “IC50 values, pan-RAF” value in the assay on RAF was “two digits nanomolar”.
Regarding `O=C(Nc1ccc(Cl)c(C(F)(F)F)c1)c1ccc(Cl)c(C(=O)Nc2ccc(-c3ncc[nH]3)nc2)c1` [II], the IC50 with B-RAF was 531 nM.
Take `COc1cc2cc(Oc3ccc(NC(=O)c4cc(C(F)(F)F)cc(C(F)(F)F)c4)cc3)c(C)nc2cc1OC` [VI]: on C-RAF [3], the “inhibition of C-RAF” value is recorded as 77%.
Take `CCn1nc(C#Cc2cc(C(=O)Nc3ccc(CN4CCN(C)CC4)c(C(F)(F)F)c3)ccc2C)c2c(N)ncnc21` [V]: the results for the IC50 on B-RAF^V600E [4], in the assay on Src and in the assay on B-RAF^WT were 92 nM, 0.9 nM and 15 nM, respectively.
With `CC(C)(C)c1nc(-c2cccc(NS(=O)(=O)c3c(F)cccc3F)c2F)c(-c2ccnc(N)n2)s1` [dabrafenib], at B-RAF^V600E [5], the “selectivity against B-RAF^V600E than its wild type” value is 500 fold.
Consider `CCCS(=O)(=O)Nc1ccc(F)c(C(=O)c2c[nH]c3ncc(-c4ccc(Cl)cc4)cc23)c1F` [vemurafenib], for which the “selectivity against B-RAF^V600E than its wild type” value at B-RAF^V600E [5] was 100 fold.

The values above are taken from paper PMC9963398, “Discovery of New Quinolone-Based Diarylamides as Potent B-RAF^V600E/C-RAF Kinase Inhibitors Endowed with Promising In Vitro Anticancer Activity” (International Journal of Molecular Sciences, 2023).
